# Source: ChEMBL document CHEMBL1765090, “Design and evaluation of fragment-like estrogen receptor tetrahydroisoquinoline ligands from a scaffold-detection approach” (J Med Chem, 2011)
# Key:
# Estrogen receptor [1] = target: T1, Estrogen receptor (Homo sapiens, UniProt P03372)
# T1 sequence (P03372 whole entry): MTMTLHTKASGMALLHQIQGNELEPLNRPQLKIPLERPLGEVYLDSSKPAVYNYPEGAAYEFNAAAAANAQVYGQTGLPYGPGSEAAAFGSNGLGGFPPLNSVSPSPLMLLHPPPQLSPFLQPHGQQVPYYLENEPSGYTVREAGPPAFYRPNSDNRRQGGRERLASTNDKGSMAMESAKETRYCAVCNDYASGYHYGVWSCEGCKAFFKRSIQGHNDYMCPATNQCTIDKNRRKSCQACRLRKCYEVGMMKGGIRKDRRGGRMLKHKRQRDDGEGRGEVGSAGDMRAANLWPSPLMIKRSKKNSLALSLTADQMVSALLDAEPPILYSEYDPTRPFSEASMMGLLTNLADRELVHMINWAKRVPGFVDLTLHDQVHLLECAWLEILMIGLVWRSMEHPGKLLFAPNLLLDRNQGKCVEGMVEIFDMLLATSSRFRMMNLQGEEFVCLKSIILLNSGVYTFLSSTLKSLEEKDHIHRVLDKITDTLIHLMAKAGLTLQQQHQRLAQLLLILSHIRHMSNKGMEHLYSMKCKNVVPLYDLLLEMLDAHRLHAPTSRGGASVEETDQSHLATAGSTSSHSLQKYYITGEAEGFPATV
# Description: (§1) Agonist activity at human N-terminal His6-tagged ERalpha receptor LBD expressed in Escherichia coli BL21 (DE3) assessed as induction of SRC1 peptide recruitment after 1 hr by fluorescence polarization assay
# Estrogen receptor beta [2] = target: T2, Estrogen receptor beta (Homo sapiens, UniProt Q92731)
# Description: (§2) Agonist activity at human N-terminal His6-tagged ERbeta receptor LBD expressed in Escherichia coli BL21 (DE3) assessed as induction of SRC1 peptide recruitment after 1 hr by fluorescence polarization assay
# Estrogen receptor [3] = target: T1, Estrogen receptor; remark: listed apart in the source
# Description: as §1
# Estrogen receptor beta [4] = target: T2, Estrogen receptor beta; remark: listed apart in the source
# Description: as §2
# [5] = target: T3, Estrogen receptor (Homo sapiens) (UniProt P03372); assay: Transcriptional activation of human ERalpha receptor transfected in human U2OS cells assessed as increase of luciferase activity by estrogen response element-luciferase reporter gene assay relative to control; assay type: cell-based
# T3 sequence (whole entry): T1 sequence (P03372 whole entry)
# Estrogen receptor beta [6] = target: T2, Estrogen receptor beta; assay: Transcriptional activation of human ERbeta receptor transfected in human U2OS cells assessed as increase of luciferase activity by estrogen response element-luciferase reporter gene assay relative to control; assay type: cell-based
# Estrogen receptor [7] = target: T1, Estrogen receptor; assay: Transcriptional activation of human ERalpha receptor transfected in human U2OS cells assessed as increase of luciferase activity by estrogen response element-luciferase reporter gene assay; assay type: cell-based
# Estrogen receptor beta [8] = target: T2, Estrogen receptor beta; assay: Transcriptional activation of human ERbeta receptor transfected in human U2OS cells assessed as increase of luciferase activity by estrogen response element-luciferase reporter gene assay; assay type: cell-based
# T2 sequence (Q92731 whole entry): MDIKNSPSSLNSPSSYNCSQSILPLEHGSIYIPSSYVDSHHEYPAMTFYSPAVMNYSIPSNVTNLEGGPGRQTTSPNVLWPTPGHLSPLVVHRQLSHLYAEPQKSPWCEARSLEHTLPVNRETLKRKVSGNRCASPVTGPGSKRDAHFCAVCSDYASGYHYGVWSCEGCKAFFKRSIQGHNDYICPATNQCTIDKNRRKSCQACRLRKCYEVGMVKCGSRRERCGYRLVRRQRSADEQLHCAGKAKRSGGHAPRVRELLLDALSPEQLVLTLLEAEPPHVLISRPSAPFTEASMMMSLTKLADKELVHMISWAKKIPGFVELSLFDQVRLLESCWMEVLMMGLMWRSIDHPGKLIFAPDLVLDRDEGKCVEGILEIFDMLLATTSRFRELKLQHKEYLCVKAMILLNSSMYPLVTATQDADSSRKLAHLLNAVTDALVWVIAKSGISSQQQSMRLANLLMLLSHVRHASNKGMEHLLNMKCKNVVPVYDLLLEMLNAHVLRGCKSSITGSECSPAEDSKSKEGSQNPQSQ
EC50 (Estrogen receptor [3]),EC50 (Estrogen receptor beta [4]),SMILES,EC50 (Estrogen receptor [1]),also measured
–,–,O=C(N1CCc2ccccc2C1)C(F)(F)F,Not Active,EC50 (Estrogen receptor beta [2]): Not Active
2.3 µM,1.6 µM,O=C(N1CCc2cc(O)ccc2C1)C(F)(F)Cl,–,–
–,–,Br.Oc1ccc2c(c1)CNCC2,Not Active,–
20 µM,3.8 µM,O=C(N1CCc2ccc(O)cc2C1)C(F)(F)F,–,–
6.2 µM,3.2 µM,O=C(N1CCc2cc(O)ccc2C1)C(Cl)(Cl)Cl,–,–
–,–,CS(=O)(=O)N1CCc2ccccc2C1,Not Active,EC50 (Estrogen receptor beta [2]): Not Active
–,–,Br.Oc1cc2c(cc1O)CNCC2,Not Active,–
–,–,CC(=O)N1CCc2cc(O)ccc2C1,Not Active,EC50 (Estrogen receptor beta [2]): Not Active
–,1 µM,O=S(=O)(c1ccccc1)N1CCc2cc(O)ccc2C1,–,–
170 µM,20 µM,CS(=O)(=O)N1CCc2cc(O)ccc2C1,–,–
–,1.1 µM,CC(C)(C)OC(=O)N1CCc2cc(O)ccc2C1,–,–
340 µM,227 µM,COc1ccc2c(c1)CCN(C(=O)C(F)(F)F)C2,–,–
–,–,Br.Oc1ccc2c(c1)CCNC2,Not Active,–
–,–,CC(=O)N1CCc2ccccc2C1,Not Active,EC50 (Estrogen receptor beta [2]): Not Active
3 µM,0.6 µM,O=S(=O)(N1CCc2cc(O)ccc2C1)C(F)(F)F,–,fold change (FC) [5]: 33; fold change (FC) (Estrogen receptor beta [6]): 7; EC50 (Estrogen receptor [7]): 1.87 µM; EC50 (Estrogen receptor beta [8]): 0.31 µM
600 µM,30 µM,O=S(=O)(c1cccc2ccccc12)N1CCc2ccc(O)cc2C1,–,–
700 µM,60 µM,O=S(=O)(c1cccc2ccccc12)N1CCc2cc(O)ccc2C1,–,–

SMILES,EC50 (Estrogen receptor [3]),EC50 (Estrogen receptor beta [4]),EC50 (Estrogen receptor [1]),also measured
O=C(N1CCc2cc(O)ccc2C1)C(F)(F)F,5.2 µM,0.9 µM,–,–
